Laboratory results reported in ChEMBL document CHEMBL3792365, “Dioxol and dihydrodioxin analogs of 2- and 3-phenylacetonitriles as potent anti-cancer agents with nanomolar activity against a variety of human cancer cells” (2016).

Columns and labels:
Type in all cases: functional
[1] = Growth inhibition of human SKOV3 cells at 10 uM after 48 hrs by sulforhodamine B assay; conditions: SK-OV-3, 48 h, values are per cent of control
[2] = Growth inhibition of human SNB75 cells at 10 uM after 48 hrs by sulforhodamine B assay; conditions: SNB-75, 48 h, values are per cent of control
A549 = test: Growth inhibition of human A549/ATCC cells at 10 uM after 48 hrs by sulforhodamine B assay; conditions: A549, 48 h, values are per cent of control
NCI-H322M = test: Growth inhibition of human NCI-H322M cells at 10 uM after 48 hrs by sulforhodamine B assay; conditions: values are per cent of control
NCI-H522 = test: Growth inhibition of human NCI-H522 cells at 10 uM after 48 hrs by sulforhodamine B assay; conditions: NCI-H522, 48 h, values are per cent of control
[3] = Growth inhibition of human TK10 cells at 10 uM after 48 hrs by sulforhodamine B assay; conditions: TK-10, 48 h, values are per cent of control
[4] = Growth inhibition of human RXF393 cells at 10 uM after 48 hrs by sulforhodamine B assay; conditions: RXF 393, 48 h, values are per cent of control
[5] = Growth inhibition of human BT549 cells at 10 uM after 48 hrs by sulforhodamine B assay; conditions: BT-549, 48 h, values are per cent of control
786-0 = test: Growth inhibition of human 786-0 cells at 10 uM after 48 hrs by sulforhodamine B assay; conditions: 786-0, 48 h, values are per cent of control
MDA-MB-468 = test: Growth inhibition of human MDA-MB-468 cells at 10 uM after 48 hrs by sulforhodamine B assay; conditions: MDA-MB-468, 48 h, values are per cent of control
[6] = Growth inhibition of human SNB19 cells at 10 uM after 48 hrs by sulforhodamine B assay; conditions: SNB-19, 48 h, values are per cent of control
[7] = Growth inhibition of human UACC62 cells at 10 uM after 48 hrs by sulforhodamine B assay; conditions: UACC-62, 48 h, values are per cent of control
[8] = Growth inhibition of human HCT116 cells at 10 uM after 48 hrs by sulforhodamine B assay; conditions: HCT-116, 48 h, values are per cent of control
K562 = test: Growth inhibition of human K562 cells at 10 uM after 48 hrs by sulforhodamine B assay; conditions: K562, 48 h, values are per cent of control
[9] = Growth inhibition of human DU145 cells at 10 uM after 48 hrs by sulforhodamine B assay; conditions: DU-145, 48 h, values are per cent of control
KM12 = test: Growth inhibition of human KM12 cells at 10 uM after 48 hrs by sulforhodamine B assay; conditions: KM12, 48 h, values are per cent of control
[10] = Growth inhibition of human SW620 cells at 10 uM after 48 hrs by sulforhodamine B assay; conditions: SW-620, 48 h, values are per cent of control
SK-MEL-28 = test: Growth inhibition of human SK-MEL-28 cells at 10 uM after 48 hrs by sulforhodamine B assay; conditions: SK-MEL-28, 48 h, values are per cent of control
[11] = Growth inhibition of human HCT15 cells at 10 uM after 48 hrs by sulforhodamine B assay; conditions: HCT-15, 48 h, values are per cent of control
[12] = Growth inhibition of human SF268 cells at 10 uM after 48 hrs by sulforhodamine B assay; conditions: SF-268, 48 h, values are per cent of control
[13] = Growth inhibition of human COLO205 cells at 10 uM after 48 hrs by sulforhodamine B assay; conditions: COLO 205, 48 h, values are per cent of control
M14 = test: Growth inhibition of human M14 cells at 10 uM after 48 hrs by sulforhodamine B assay; conditions: M14, 48 h, values are per cent of control
[14] = Growth inhibition of human Caki1 cells at 10 uM after 48 hrs by sulforhodamine B assay; conditions: CAKI-1, 48 h, values are per cent of control
HT-29 = test: Growth inhibition of human HT-29 cells at 10 uM after 48 hrs by sulforhodamine B assay; conditions: HT-29, 48 h, values are per cent of control
NCI-H226 = test: Growth inhibition of human NCI-H226 cells at 10 uM after 48 hrs by sulforhodamine B assay; conditions: NCI-H226, 48 h, values are per cent of control
MDA-MB-435 = test: Growth inhibition of human MDA-MB-435 cells at 10 uM after 48 hrs by sulforhodamine B assay; conditions: MDA-MB-435, 48 h, values are per cent of control
[15] = Growth inhibition of human SF539 cells at 10 uM after 48 hrs by sulforhodamine B assay; conditions: SF-539, 48 h, values are per cent of control
[16] = Growth inhibition of human NCI-ADR-RES cells at 10 uM after 48 hrs by sulforhodamine B assay; conditions: values are per cent of control
[17] = Growth inhibition of human HCC2998 cells at 10 uM after 48 hrs by sulforhodamine B assay; conditions: HCC 2998, 48 h, values are per cent of control
SK-MEL-2 = test: Growth inhibition of human SK-MEL-2 cells at 10 uM after 48 hrs by sulforhodamine B assay; conditions: SK-MEL-2, 48 h, values are per cent of control
SK-MEL-5 = test: Growth inhibition of human SK-MEL-5 cells at 10 uM after 48 hrs by sulforhodamine B assay; conditions: SK-MEL-5, 48 h, values are per cent of control
ACHN = test: Growth inhibition of human ACHN cells at 10 uM after 48 hrs by sulforhodamine B assay; conditions: values are per cent of control
T47D = test: Growth inhibition of human T47D cells at 10 uM after 48 hrs by sulforhodamine B assay; conditions: values are per cent of control
NCI-H460 = test: Growth inhibition of human NCI-H460 cells at 10 uM after 48 hrs by sulforhodamine B assay; conditions: NCI-H460, 48 h, values are per cent of control
SN12C = test: Growth inhibition of human SN12C cells at 10 uM after 48 hrs by sulforhodamine B assay; conditions: values are per cent of control
[18] = Growth inhibition of human OVCAR4 cells at 10 uM after 48 hrs by sulforhodamine B assay; conditions: OVCAR-4, 48 h, values are per cent of control
MDA-MB-231 = test: Growth inhibition of human MDA-MB-231 cells at 10 uM after 48 hrs by sulforhodamine B assay; conditions: MDA-MB-231, 48 h, values are per cent of control
SR = test: Growth inhibition of human SR cells at 10 uM after 48 hrs by sulforhodamine B assay; conditions: values are per cent of control
[19] = Growth inhibition of human IGROV1 cells at 10 uM after 48 hrs by sulforhodamine B assay; conditions: IGROV-1, 48 h, values are per cent of control
[20] = Growth inhibition of human HOP62 cells at 10 uM after 48 hrs by sulforhodamine B assay; conditions: HOP-62, 48 h, values are per cent of control

| Structure (SMILES) | growth, % of control at 10 µM [1] | growth, % of control at 10 µM [2] | growth, % of control at 10 µM (A549) | growth, % of control at 10 µM (NCI-H322M) | growth, % of control at 10 µM (NCI-H522) | growth, % of control at 10 µM [3] | growth, % of control at 10 µM [4] | growth, % of control at 10 µM [5] | growth, % of control at 10 µM (786-0) | growth, % of control at 10 µM (MDA-MB-468) | growth, % of control at 10 µM [6] | growth, % of control at 10 µM [7] | growth, % of control at 10 µM [8] | growth, % of control at 10 µM (K562) | growth, % of control at 10 µM [9] | growth, % of control at 10 µM (KM12) | growth, % of control at 10 µM [10] | growth, % of control at 10 µM (SK-MEL-28) | growth, % of control at 10 µM [11] | growth, % of control at 10 µM [12] | other results |
| --- | --- | --- | --- | --- | --- | --- | --- | --- | --- | --- | --- | --- | --- | --- | --- | --- | --- | --- | --- | --- | --- |
| COc1ccc(/C=C(\C#N)c2ccc3c(c2)OCO3)c(Cl)c1OC | 89.2% | 73.5% | 84.7% | 97.8% | 66% | 87.6% | 78.3% | 64.1% | 84.8% | 48.8% | 89.6% | 56.6% | 71.4% | 39.2% | 104% | 69.2% | 62.3% | 91% | 63.9% | 98.2% | growth, % of control at 10 µM [13]: 85%; growth, % of control at 10 µM (M14): 72.4%; growth, % of control at 10 µM [14]: 79.3%; growth, % of control at 10 µM (HT-29): 70.3%; growth, % of control at 10 µM (NCI-H226): 85%; growth, % of control at 10 µM (MDA-MB-435): 15.3%; growth, % of control at 10 µM [15]: 91.8%; growth, % of control at 10 µM [16]: 60.5%; growth, % of control at 10 µM [17]: 76.9%; growth, % of control at 10 µM (SK-MEL-2): 80.1%; growth, % of control at 10 µM (SK-MEL-5): 85%; growth, % of control at 10 µM (ACHN): 92.3%; growth, % of control at 10 µM (T47D): 65.1%; growth, % of control at 10 µM (NCI-H460): 92.6%; growth, % of control at 10 µM (SN12C): 83.5%; growth, % of control at 10 µM [18]: 98.6%; growth, % of control at 10 µM (MDA-MB-231): 82.3%; growth, % of control at 10 µM (SR): 51.1%; growth, % of control at 10 µM [19]: 77.1%; growth, % of control at 10 µM [20]: 87.2% |
| COc1ccc(/C(C#N)=C/c2ccc3c(c2)OCO3)cc1 | 88.6% | 80.8% | 71.2% | 94.7% | 90.5% | 85.7% | 91.4% | 74.7% | 95.4% | 48.6% | 49.4% | 69.2% | 64.9% | 37.9% | 95% | 63.6% | 84.9% | 81.4% | 59% | 92% | growth, % of control at 10 µM [13]: 76.2%; growth, % of control at 10 µM (M14): 10.4%; growth, % of control at 10 µM [14]: 78.2%; growth, % of control at 10 µM (HT-29): 64.5%; growth, % of control at 10 µM (NCI-H226): 86.6%; growth, % of control at 10 µM (MDA-MB-435): 77.9%; growth, % of control at 10 µM [15]: 83.7%; growth, % of control at 10 µM [16]: 75.3%; growth, % of control at 10 µM [17]: 80%; growth, % of control at 10 µM (SK-MEL-2): 90.1%; growth, % of control at 10 µM (SK-MEL-5): 91.4%; growth, % of control at 10 µM (ACHN): 95.3%; growth, % of control at 10 µM (T47D): 70%; growth, % of control at 10 µM (NCI-H460): 64.3%; growth, % of control at 10 µM (SN12C): 84.3%; growth, % of control at 10 µM [18]: 76.4%; growth, % of control at 10 µM (MDA-MB-231): 68.7%; growth, % of control at 10 µM (SR): 39.3%; growth, % of control at 10 µM [19]: 84.6%; growth, % of control at 10 µM [20]: 86.6% |
| N#C/C(=C\c1ccsc1)c1ccc2c(c1)OCO2 | 102% | 67.7% | 92.1% | 90.6% | 95.4% | 104% | 101% | 96.5% | 96.7% | 105% | 101% | 106% | 102% | 105% | 98.5% | 94.6% | 109% | 113% | 107% | 102% | growth, % of control at 10 µM [13]: 101%; growth, % of control at 10 µM (M14): 105%; growth, % of control at 10 µM [14]: 97.3%; growth, % of control at 10 µM (HT-29): 102%; growth, % of control at 10 µM (NCI-H226): 101%; growth, % of control at 10 µM (MDA-MB-435): 107%; growth, % of control at 10 µM [15]: 105%; growth, % of control at 10 µM [16]: 113%; growth, % of control at 10 µM [17]: 106%; growth, % of control at 10 µM (SK-MEL-2): 106%; growth, % of control at 10 µM (SK-MEL-5): 102%; growth, % of control at 10 µM (ACHN): 112%; growth, % of control at 10 µM (T47D): 90.7%; growth, % of control at 10 µM (NCI-H460): 104%; growth, % of control at 10 µM (SN12C): 104%; growth, % of control at 10 µM [18]: 91%; growth, % of control at 10 µM (MDA-MB-231): 103%; growth, % of control at 10 µM (SR): 86.5%; growth, % of control at 10 µM [19]: 96.4%; growth, % of control at 10 µM [20]: 94.5% |
